# Key:
# schizophrenic patient = conditions: cited from earlier work
# [1] = A. J. Poortman, H. Huizer, Forensic Science International (1999); cited from earlier work
# [2] = Rate of dissolution of CBD according to Ph. Eur. 2.9.3 for oral tablets; format: physicochemical; conditions: 1 wt. % SDS in water, pH 7, 36-41° C.
# Procedure: The rate of dissolution of CBD from the compressed tablets described in Example 2 was tested according to European Pharmacopeia (Ph. Eur. 2.9.3) for oral tablets. The rate of dissolution of pure CBD (20 mg) was determined using the same method.
# The dissolution medium consisted of a solution of 1 wt. % SDS in water. The pH of the medium had been adjusted to 7 with diluted HCl. During the experiments, the temperature of the dissolution media was maintained between 36 and 41° C. under stirring. After dropping the tablet in the dissolution medium, samples were taken at various time intervals with a disposable syringe. The samples were filtered immediately over a syringe filter into a HPLC vial and analyzed by HPLC.
compound,measurement,setting,value
"C=C(C)[C@@H]1CCC(C)=C[C@H]1c1c(O)cc(CCCCC)cc1O [CBD, cannabidiol]",symptom course,"schizophrenic patient; patient with schizophrenia, dose doubled every 5 days, at 1280 mg/day",trend for symptom improvement
same,clinical course during CBD treatment,"schizophrenic patient; schizophrenic patient, CBD dissolved in oil up to 1500 mg/day for 4 weeks",significant improvement
same,stability of the drug,[1],unstable
same,% (w/w) of CBD dissolved,[2]; 1 min,2.6 % (w/w)
same,% (w/w) of CBD dissolved,[2]; 4 min,9.2 % (w/w)
same,% (w/w) of CBD dissolved,[2]; 8 min,18.6 % (w/w)
same,% (w/w) of CBD dissolved,[2]; 15 min,27.4 % (w/w)
same,% (w/w) of CBD dissolved,[2]; 30 min,35.2 % (w/w)
same,% (w/w) of CBD dissolved,[2]; 45 min,42.4 % (w/w)
same,% (w/w) of CBD dissolved,[2]; 60 min,45.5 % (w/w)

# Source: patent US10245237B2, “Compressed tablet containing cannabidiol, method for its manufacture and use of such tablet in oral treatment of psychosis or anxiety disorders” (Echo Pharmaceuticals B.V., priority 2013, dated 2019)
